Measurements reported in patent US11555014B2, “High penetration prodrug compositions of prostaglandins and related compounds” (Techfields Pharma Co., Ltd., priority 2006, dated 2023).

Legend:
cat eye = assay: Irritative effect or ocular discomfort in the cat eye after topical application; assay type: in vivo; settings: dose 0.001% topical, first 2 hours, scale 0 (no discomfort) to 4 (maximal irritation, complete lid closure)
Protocol: Irritative effect or ocular discomfort in the cat eye of naturally occurring and modified prostaglandins and their novel prodrugs were evaluated during the first hours after the topical application of the respective test drug. The ocular discomfort was graded on a scale from 0 to 4, 0 indicating complete absence of any signs of discomfort, and 4 indicating maximal irritation as obvious from complete lid closure.

Solubility in water = assay type: physicochemical
Protocol: 37.7 g (0.1 mol) of sodium 11,15-dihydroxy-9-oxoprost-13-en-1-oate was dissolved in 100 ml of acetonitrile. 26.1 g (0.1 mol) of 2-Bromo-N,N-diethylethylamine.HBr and 8.6 g of sodium bicarbonate were added into the reaction mixture. The mixture was stirred for overnight at RT. The solvents were evaporated off. 250 ml of ethyl acetate was added into the reaction mixture and the mixture was washed with water (3×100 ml). The organic solution was dried over anhydrous sodium sulfate. Sodium sulfate was removed by filtration. 6 g of acetic acid was added into the reaction mixture with stirring. Hexane (200 ml) was added. The solid product was collected by filtration. After drying, it yielded 42 g of the desired product (81.8%). Hygroscopic product; Solubility in water: 100 mg/ml; Elementary analysis: C28H51NO7; MW: 513.37. Calculated % C, 65.47; H, 10.01; N, 2.73; O, 21.80. Found % C, 65.42; H, 10.03; N, 2.70; O, 21.85.
43.7 g (0.1 mol) of 11,15-diacetoxy-9-oxoprosta-5,13-dien-1-oic acid was dissolved in 300 ml of chloroform. 20.6 g of N,N′-Dicyclohexylcarbodiimide was added into the reaction mixture. 11.7 g of N,N-diethylaminoethylamine was added into the reaction mixture. The mixture was stirred for 3 hours at RT. The solid was removed by filtration. The chloroform solution was washed with 5% NaHCO3 (2×100 ml) and water (3×100 ml). The organic solution was dried over anhydrous sodium sulfate. Sodium sulfate was removed by filtration. 6 g of acetic acid was added into the reaction mixture with stirring. Hexane (200 ml) was added. The solid product was collected by filtration. After drying, it yielded 45 g of the desired product (85.8%). Hygroscopic product; Solubility in water: 100 mg/ml; Elementary analysis: C34H59NO9S; MW: 657.90. Calculated % C, 62.07; H, 9.04; N, 2.13; O, 21.89; S, 4.87. Found % C, 62.02; H, 9.06; N, 2.11; O, 21.95; S, 4.86.
49.9 g (0.1 mol) of 9,11,15-triacetoxyprost-13-en-1-oic acid was dissolved in 300 ml of chloroform. 20.6 g of N,N′-Dicyclohexylcarbodiimide was added into the reaction mixture. 13.1 g of dimethylaminoethyl mercaptan was added into the reaction mixture. The mixture was stirred for 3 hours at RT. The solid was removed by filtration. The chloroform solution was washed with 5% NaHCO3 (2×100 ml) and water (3×100 ml). The organic solution was dried over anhydrous sodium sulfate. Sodium sulfate was removed by filtration. 6 g of acetic acid was added into the reaction mixture with stirring. Hexane (200 ml) was added. The solid product was collected by filtration. After drying, it yielded 45 g of the desired product (85.8%). Hygroscopic product; Solubility in water: 100 mg/ml; Elementary analysis: C32H53NO9; MW: […] Calculated % C, 64.51; H, 8.97; N, 2.35; O, 24.17. Found % C, 64.47; H, 8.99; N, 2.34; O, 24.20.
37.7 g (0.1 mol) of sodium 9,11,15-trihydroxyprosta-5,13-dien-1-oate was dissolved in 100 ml of acetonitrile. 39 g (0.15 mol) of 2-Bromo-N,N-diethylethylamine.HBr in ethyl acetate was added into the reaction mixture. The mixture was stirred for 3 h at RT. Then 8 g of sodium bicarbonate was added into the reaction mixture. The mixture is stirred for another 2 h at RT. The solvents were evaporated off. 250 ml of ethyl acetate was added into the reaction mixture and the mixture was washed with water (3×100 ml). The organic solution was dried over anhydrous sodium sulfate. Sodium sulfate was removed by filtration. 6 g of acetic acid was added into the reaction mixture with stirring. […] Calculated % C, 65.47; H, 10.01; N, 2.73; O, 21.80. […]

[1] = In vitro penetration rate across isolated human skin in modified Franz cells; settings: 10% solution in pH 7.4 phosphate buffer (0.2 M), n=5
Protocol: The penetration rates of HPPs and their parent drugs through human skin were measured in vitro by modified Franz cells. The Franz cells have two chambers, the top sample chamber and the bottom receiving chamber. The human skin tissue (360-400 μm thick) that separates the top and the receiving chambers was isolated from the anterior or posterior thigh areas.
The compound tested (2 mL, 20% in 0.2 M phosphate buffer, pH. 7.4) were added to the sample chamber of a Franz cell. The receiving chamber contains 10 ml of 2% bovine serum albumin in saline which was stirred at 600 rpm. The cumulative amounts of the tested compounds penetrating the skin versus time were determined by high-performance liquid chromatography (HPLC) method.

[2] = test system: cats with ocular hypertension; assay: Intraocular pressure (IOP) reduction in cats with ocular hypertension produced by laser trabeculoplasty; assay type: in vivo, cat; settings: for Intraocular pressure, 24 hours after administration / Intraocular pressure, 36 hours after administration / Intraocular pressure, 48 hours after administration / Intraocular pressure, 60 hours after administration / Intraocular pressure, 72 hours after administration: dose 0.001%, one drop topical every 12 hours, 6 doses; for Intraocular pressure, baseline: prior to treatment, group dosed 0.001%
Protocol: The ability of certain compounds of the present invention to reduce intraocular pressure (IOP) was evaluated in cats with ocular hypertension produced by previously done laser trabeculoplastry. IOP was determined with a pneumatonometer after light corneal anesthesia with dilute proparacaine. Baseline IOP was determined prior to treatment with the test compound aqueous solution. 6 divided doses were administered over a period of 3 days (once every 12 hours). IOP was determined 24 hours after the initial dose and then once every 12 hours. The therapeutically efficient amount is typically between 0.001 and 0.01% in pH 7.2 phosphate buffer (0.1 M). The treatment was carried out in that one drop (about 30 micro liter) of the composition. The results of N,N-diethylaminoethyl 11,15-dihydroxy-9-oxoprost-13-en-1-oate.AcOH (A), N,N-diethylaminoethyl 11,15-dihydroxyl-9-oxoprosta-5,13-dien-1-oate.AcOH (B), N,N-diethylaminoethyl 9,11,15-trihydroxyprosta-5,13-dien-1-oate.AcOH(C), N,N-diethylaminoethyl 9,11-dihydroxy-15-keto-20-ethylprost-5,13-dien-1-oate.AcOH (9,11-dihydroxy-15-keto-20-ethylprostaglandin F2α N,N-diethylaminoethyl ester) (D), N,N-diethylaminoethyl (Z)-7-{(1R,2R,3R,5S)-3,5-dihydroxy-2-[(1E,3R)-3-hydroxy-4-[(α,α,α-trifluoro-m-tolyl)oxy]-1-butenyl]cyclopentyl}-5-heptenoate.AcOH (E), N,N-diethylaminoethyl (Z)-7{(1R,2R,3R,5S)-3,5-dihydroxy-2-[(3R)-3-hydroxy-5-phenylpentyl]cyclopentyl}-5-heptenoate.AcOH (F), and N,N-diethylaminoethyl (Z)-7-{(1R,2R,3R,5S)-3,5-Dihydroxy-2-[(1E,3S)-3-hydroxy-5-phenyl-1-pentenyl]cyclopentyl}-heptenoate.AcOH (G) are shown in Table 2.

rabbit eye = assay: Conjunctival hyperemia in the rabbit eye after topical application; assay type: in vivo; settings: dose 0.001% topical, first 2 hours, scale 0 (no hyperemia) to 4 (marked hyperemia with conjunctive chemosis)
Protocol: Conjunctival hyperemia in the rabbit eye of naturally occurring and modified prostaglandins and their novel prodrugs was evaluated during the first 2 hours after topical application of the respective test drug. The conjunctival hyperemia was graded on a scale from 0 to 4, 0 indicating complete absence of any hyperemia, and 4 indicating marked hyperemia with conjunctive chemosis.

rats = assay: Sexual behaviour (solicitation, copulation) of rats after application to genital area; assay type: in vivo, rat
Protocol: The HPP of the invention can diffuse through human skin in very high rate (˜1 mg/h/cm^2) and can provide almost side-effects-free methods of treating erectile dysfunction or enhancing female sexual arousal. About 0.01 ml of 0.0005% [˜0.05 μg (microgram)] N,N-diethylaminoethyl 11,15-dihydroxy-9-oxoprost-13-en-1-oate.AcOH in pH 7.0 phosphate buffer (0.1 M) was applied to genital area of male rats (30 rats) once per day for 5 days.
When same amount of N,N-diethylaminoethyl 11,15-dihydroxy-9-oxoprost-13-en-1-oate.AcOH in pH 7.0 phosphate buffer (0.1 M) were applied to genital area of both male rats (30 rats) and female rats (30 rates) once per day for 5 days.

[3] = Milosovich et al., J. Pharm. Sci., 82, 227 (1993); cited from earlier work
[4] = about 0.01 ml of 0.0005% (~0.05 μg) applied to genital area of male rats once per day for 5 days
[5] = same amount applied to genital area of both male and female rats once per day for 5 days

Row | Molecule | Degree of irritative effect (cat eye) | Solubility in water (Solubility in water) [mg/mL] | In vitro penetration rate (apparent flux), prodrug compounds [1] [mg/cm^2/h] | Intraocular pressure, 24 hours after administration [2] | Intraocular pressure, 36 hours after administration [2] | Intraocular pressure, 48 hours after administration [2] | Intraocular pressure, 60 hours after administration [2] | Intraocular pressure, 72 hours after administration [2] | Intraocular pressure, baseline [2] | Degree of irritative effect (conjunctival hyperemia) (rabbit eye) | Increase in copulation compared to rats not given the drug (rats; [4]) [fold] | Increase in solicitation compared to rats not given the drug (rats; [4]) [fold] | Discomfort of treated rats (rats; applied to genital area of rats once per day for 5 days) | Increase in copulation compared to rats not given the drug (rats; [5]) [fold] | Increase in solicitation compared to rats not given the drug (rats; [5]) [fold] | Diffusion through human skin, times faster than the parent drug (TS) [3]
1 | CC(=O)O.CCCCCC(O)C=C[C@H]1C(O)CC(O)[C@@H]1CC=CCCCC(=O)OCCN(CC)CC (some centres unmarked) [N,N-diethylaminoethyl 9,11,15-trihydroxyprosta-5,13-dien-1-oate.AcOH] | 1 | 100 | 0.94 | 15.5 ± 0.5 | 15.6 ± 0.6 | 15.7 ± 0.5 | 15.6 ± 0.7 | 15.5 ± 0.6 | 22.5 ± 0.7 | 1 | – | – | – | – | – | –
2 | CC(=O)O.CCCCCC(O)C=CC1C(O)CC(=O)C1CCCCCCC(=O)OCCN(CC)CC (centres unmarked) [N,N-diethylaminoethyl 11,15-dihydroxy-9-oxoprost-13-en-1-oate.AcOH] | – | 100 | 1.01 | – | – | – | – | – | – | – | 4 | 6 | did not show any discomfort | 6 | 6 | –
3 | CC(=O)O.CCN(CC)CCOC(=O)CCC/C=C\C[C@@H]1[C@@H](/C=C/[C@@H](O)CCc2ccccc2)[C@H](O)C[C@@H]1O [N,N-diethylaminoethyl (Z)-7-{(1R,2R,3R,5S)-3,5-Dihydroxy-2-[(1E,3S)-3-hydroxy-5-phenyl-1-pentenyl]cyclopentyl}-heptenoate.AcOH] | 1 | – | 0.85 | 15.2 ± 0.6 | 15.4 ± 0.5 | 15.5 ± 0.4 | 15.4 ± 0.6 | 15.4 ± 0.5 | 22.4 ± 0.6 | 1 | – | – | – | – | – | –
4 | CC(=O)O.CCN(CC)CCOC(=O)CCC/C=C\C[C@@H]1[C@@H](/C=C/[C@@H](O)COc2cccc(C(F)(F)F)c2)[C@H](O)C[C@@H]1O [N,N-diethylaminoethyl (Z)-7-{(1R,2R,3R,5S)-3,5-dihydroxy-2-[(1E,3R)-3-hydroxy-4-[(α,α,α-trifluoro-m-tolyl)oxy]-1-butenyl]cyclopentyl}-5-heptenoate.AcOH] | 1 | – | 0.91 | 15.1 ± 0.4 | 15.0 ± 0.5 | 15.0 ± 0.4 | 14.9 ± 0.3 | 15.1 ± 0.4 | 22.1 ± 0.4 | 1 | – | – | – | – | – | –
5 | CC(=O)O.CCN(CC)CCOC(=O)CCC/C=C\C[C@@H]1[C@@H](CC[C@@H](O)CCc2ccccc2)[C@H](O)C[C@@H]1O [N,N-diethylaminoethyl (Z)-7{(1R,2R,3R,5S)-3,5-dihydroxy-2-[(3R)-3-hydroxy-5-phenylpentyl]cyclopentyl}-5-heptenoate.AcOH] | 1 | – | 0.95 | 15.6 ± 0.5 | 15.7 ± 0.4 | 15.6 ± 0.5 | 15.5 ± 0.4 | 15.6 ± 0.6 | 22.5 ± 0.5 | 1 | – | – | – | – | – | –
6 | CC(=O)O.CCCCCC(C=C[C@H]1C(OC(C)=O)CC(OC(C)=O)[C@@H]1CCCCCCC(=O)SCCN(C)C)OC(C)=O (some centres unmarked) [S—(N,N-dimethylaminoethyl) 9,11,15-triacetoxythioprost-13-en-1-oate.AcOH] | – | 100 | – | – | – | – | – | – | – | – | – | – | – | – | – | –
7 | CN(C)CCCC(=O)O[C@H]1CC[C@H]2[C@@H]3CCC4=CC(=O)CC[C@]4(C)[C@H]3CC[C@]12C.Cl [TSBH, testosteronyl-4-dimethylaminobutyrate.HCl] | – | – | – | – | – | – | – | – | – | – | – | – | – | – | – | about 60 times
8 | N,N-diethylaminoethyl 11,15-diacetoxy-9-oxoprosta-5,13-dien-1-oamide.AcOH | – | 100 | – | – | – | – | – | – | – | – | – | – | – | – | – | –
